# Reference: article PMC9500974, “Ultrasonic-Assisted Synthesis of Benzofuran Appended Oxadiazole Molecules as Tyrosinase Inhibitors: Mechanistic Approach through Enzyme Inhibition, Molecular Docking, Chemoinformatics, ADMET and Drug-Likeness Studies” (International Journal of Molecular Sciences, 2022)
# Target: bacterial tyrosinase (indigenously isolated from Bacillus subtilis NCTC 10400)
# Assay: Tyrosinase inhibition assay (dopachrome formation, OD 475 nm)
# Assay type: biochemical
# Conditions: L-tyrosine substrate, 25 °C, triplicates, mean ± SD
# Description: The target derivatives were evaluated against tyrosinase enzyme (indigenously isolated from Bacillus subtilis NCTC 10400) inhibition. […] Structure-activity relationship (SAR) studies indicate that overall substituent-related tyrosinase activity decreases in the following way: 2-flouro > 2-chloro > 3,4-dichloro > 4-fluoro > 3,4-dimethyl > 2-methoxy > phenyl > 2,4-dimethyl > 2,5-dimethoxy > diethyl.
# The bacterial tyrosinase enzyme isolation and preparation were fully described in our previously published paper and in other reported literature. A novel synthesized series of oxadiazole-based furan molecules were screened for anti-tyrosinase activity. Tyrosinase inhibition was investigated by modifying the reported methods of Kim. Briefly, phosphate buffer (0.05 M), L-tyrosine (765 µL; 2 mM) and tested compounds (35 µL) were incubated at ambient temperature for 10 min then bacterial tyrosinase (200 µL; about 48 U/mL) was added and the whole assay solution was allowed to stand at 25 °C for 2 min. The formation of dopachrome was monitored after incubation (2 min) by measuring the increase in optical density (OD) at λmax 475 nm. The stock solution for the entire synthesized series of oxadiazole-based furan moieties (1 mM) was prepared in DMSO (dimethyl sulfoxide). Five different dilutions of each oxadiazole-based furan moiety was prepared. Ascorbic acid (1 mM) was utilized for the standard tyrosinase inhibitor, and the values were expressed as IC50, the concentration of tested samples which caused the 50% inhibition. The percentage (%) of bacterial tyrosinase inhibitory activity was determine by utilizing the formula:(2) % Inhibition=A−BA×100
# Here, A represents control enzyme, i.e., without inhibitor, while B represented the test sample, i.e., inhibitor.
# The Prism software was used to analyze statistical data, while the results were measured in triplicates and depicted as mean ± SD.
row,IC50 [µM],SMILES
1,11.5 ± 1,"O=C1O[C@H]([C@@H](O)CO)C(O)=C1O [Ascorbic acid, reference compound]"
2,11 ± 0.25,"O=C(CSc1nnc(-c2cc3cc(Br)ccc3o2)o1)Nc1ccccc1F [Compound 5a, 2-((5-(5-Bromobenzofuran-2-yl)-1,3,4-oxadiazol-2-yl)thio)-N-(2-fluorophenyl)acetamide]"
3,12.4,"O=C(CSc1nnc(-c2cc3cc(Br)ccc3o2)o1)Nc1ccccc1Cl [Compound 5b, 2-((5-(5-Bromobenzofuran-2-yl)-1,3,4-oxadiazol-2-yl)thio)-N-(2-chlorophenyl)acetamide]"
4,12.7,"O=C(CSc1nnc(-c2cc3cc(Br)ccc3o2)o1)Nc1ccc(Cl)c(Cl)c1 [Compound 5c, 2-((5-(5-Bromobenzofuran-2-yl)-1,3,4-oxadiazol-2-yl)thio)-N-(3,4-dichlorophenyl)acetamide]"
5,15.5,"O=C(CSc1nnc(-c2cc3cc(Br)ccc3o2)o1)Nc1ccc(F)cc1 [Compound 5d, 2-((5-(5-Bromobenzofuran-2-yl)-1,3,4-oxadiazol-2-yl)thio)-N-(4-fluorophenyl)acetamide]"
6,25 ± 0.75,"Cc1ccc(NC(=O)CSc2nnc(-c3cc4cc(Br)ccc4o3)o2)cc1C [Compound 5e, 2-((5-(5-Bromobenzofuran-2-yl)-1,3,4-oxadiazol-2-yl)thio)-N-(3,4-dimethylphenyl)acetamide]"
7,27 ± 1,"COc1ccccc1NC(=O)CSc1nnc(-c2cc3cc(Br)ccc3o2)o1 [Compound 5f, 2-((5-(5-Bromobenzofuran-2-yl)-1,3,4-oxadiazol-2-yl)thio)-N-(2-methoxyphenyl)acetamide]"
8,30 ± 1.5,"O=C(CSc1nnc(-c2cc3cc(Br)ccc3o2)o1)Nc1ccccc1 [Compound 5g, 2-((5-(5-Bromobenzofuran-2-yl)-1,3,4-oxadiazol-2-yl)thio)-N-phenylacetamide]"
9,36 ± 0.25,"Cc1ccc(NC(=O)CSc2nnc(-c3cc4cc(Br)ccc4o3)o2)c(C)c1 [Compound 5h, 2-((5-(5-Bromobenzofuran-2-yl)-1,3,4-oxadiazol-2-yl)thio)-N-(2,4-dimethylphenyl)acetamide]"
10,48 ± 0.96,"COc1ccc(OC)c(NC(=O)CSc2nnc(-c3cc4cc(Br)ccc4o3)o2)c1 [Compound 5i, 2-((5-(5-Bromobenzofuran-2-yl)-1,3,4-oxadiazol-2-yl)thio)-N-(2,5-dimethoxyphenyl)acetamide]"
11,49.5 ± 0.92,CCN(CC)C(=O)CSc1nnc(-c2cc3ccccc3o2)o1 [Compound 5j]
